Like-named read-outs stand apart in the source and are kept apart here.
Legend:
[1] = target: T1, sucrase (Rattus norvegicus, UniProt P23739); assay: Enzyme-kinetic analysis on sucrase (Lineweaver–Burk plots); format: biochemical, Wistar rats; conditions: for Ki: from LB plots; for Inhibition Type: sucrose substrate
T1 construct: Sucrase and maltase were obtained from the intestinal brush border of Wistar rats; from tissue; host or cells: intestinal brush border of Wistar rats
Protocol: (§1) Sucrase and maltase were obtained from the intestinal brush border of Wistar rats. […] Each stock solution was prepared with distilled water. All other solvents and chemicals were of analytical purity.
(§2) Lineweaver–Burk double reciprocal plots (LB plots) were then obtained to calculate the kinetic constants and evaluate inhibitory type, the equation is as follows: 1/V = (Km + [S])/(Vmax[S]) = (Km/Vmax) * (1/[S]) + (1/Vmax),
(§3) In this equation, [S] denotes the concentration of substrate, V represents the enzyme reaction velocity and Km is the Michaelis–Menten constant.

[2] = target: T1, sucrase; assay: α-glucosidase inhibition assay, sucrase (sucrose substrate, glucose oxidase readout); format: biochemical, Wistar rats; conditions: for Sucrase Inhibition, Inhibition Ratio (%): at 4 × 10^−5 M
Protocol: as §1
The modified inhibitory screening system was used to determine inhibitory activity on α-glucosidase. Selected starch, sucrose, and maltose were used as α-glucosidase substrates instead of p-nitrophenyl glucopyranoside. Maltase and sucrase were pre-incubated with different concentrations of compound (0.004–400 μmol/L) at 37 °C for 8 min, and the substrate was then added into initiate the reaction. After incubation at 37 °C for 40 min, 150 μL of glucose oxidase solution was added to each mixture and incubated at 37 °C for 40 min. […] Inhibitory percentage values were calculated using the formula: %Inhibition = (B − C)/B × 100, where B is the formation of glucose under the enzyme without compound and C is the formation of glucose with compound.

[3] = target: α-amylase; assay: α-amylase inhibition assay (starch-iodine); format: biochemical; conditions: for α-Amylase Inhibition, Inhibition Ratio (%): at 1 × 10^−5 M
Protocol: as §1
α-amylase was pre-incubated with different compound concentrations (0.016–100 μmol/L) at 37 °C for 15 min, and the reaction was initiated with the addition of 100 µL of 0.04% starch solution. After incubation at 37 °C for 10 min, 0.1 M iodine reagent was added. Absorption at 660 nm was measured to determine the remaining amount of starch in the reaction and thus calculate the inhibitory effect in the different samples.

[4] = target: maltase (Rattus norvegicus, UniProt D3ZTX4); assay: Enzyme-kinetic analysis on maltase (Lineweaver–Burk plots); format: biochemical, Wistar rats; conditions: maltose substrate
Chain of maltase (D3ZTX4 1-4511): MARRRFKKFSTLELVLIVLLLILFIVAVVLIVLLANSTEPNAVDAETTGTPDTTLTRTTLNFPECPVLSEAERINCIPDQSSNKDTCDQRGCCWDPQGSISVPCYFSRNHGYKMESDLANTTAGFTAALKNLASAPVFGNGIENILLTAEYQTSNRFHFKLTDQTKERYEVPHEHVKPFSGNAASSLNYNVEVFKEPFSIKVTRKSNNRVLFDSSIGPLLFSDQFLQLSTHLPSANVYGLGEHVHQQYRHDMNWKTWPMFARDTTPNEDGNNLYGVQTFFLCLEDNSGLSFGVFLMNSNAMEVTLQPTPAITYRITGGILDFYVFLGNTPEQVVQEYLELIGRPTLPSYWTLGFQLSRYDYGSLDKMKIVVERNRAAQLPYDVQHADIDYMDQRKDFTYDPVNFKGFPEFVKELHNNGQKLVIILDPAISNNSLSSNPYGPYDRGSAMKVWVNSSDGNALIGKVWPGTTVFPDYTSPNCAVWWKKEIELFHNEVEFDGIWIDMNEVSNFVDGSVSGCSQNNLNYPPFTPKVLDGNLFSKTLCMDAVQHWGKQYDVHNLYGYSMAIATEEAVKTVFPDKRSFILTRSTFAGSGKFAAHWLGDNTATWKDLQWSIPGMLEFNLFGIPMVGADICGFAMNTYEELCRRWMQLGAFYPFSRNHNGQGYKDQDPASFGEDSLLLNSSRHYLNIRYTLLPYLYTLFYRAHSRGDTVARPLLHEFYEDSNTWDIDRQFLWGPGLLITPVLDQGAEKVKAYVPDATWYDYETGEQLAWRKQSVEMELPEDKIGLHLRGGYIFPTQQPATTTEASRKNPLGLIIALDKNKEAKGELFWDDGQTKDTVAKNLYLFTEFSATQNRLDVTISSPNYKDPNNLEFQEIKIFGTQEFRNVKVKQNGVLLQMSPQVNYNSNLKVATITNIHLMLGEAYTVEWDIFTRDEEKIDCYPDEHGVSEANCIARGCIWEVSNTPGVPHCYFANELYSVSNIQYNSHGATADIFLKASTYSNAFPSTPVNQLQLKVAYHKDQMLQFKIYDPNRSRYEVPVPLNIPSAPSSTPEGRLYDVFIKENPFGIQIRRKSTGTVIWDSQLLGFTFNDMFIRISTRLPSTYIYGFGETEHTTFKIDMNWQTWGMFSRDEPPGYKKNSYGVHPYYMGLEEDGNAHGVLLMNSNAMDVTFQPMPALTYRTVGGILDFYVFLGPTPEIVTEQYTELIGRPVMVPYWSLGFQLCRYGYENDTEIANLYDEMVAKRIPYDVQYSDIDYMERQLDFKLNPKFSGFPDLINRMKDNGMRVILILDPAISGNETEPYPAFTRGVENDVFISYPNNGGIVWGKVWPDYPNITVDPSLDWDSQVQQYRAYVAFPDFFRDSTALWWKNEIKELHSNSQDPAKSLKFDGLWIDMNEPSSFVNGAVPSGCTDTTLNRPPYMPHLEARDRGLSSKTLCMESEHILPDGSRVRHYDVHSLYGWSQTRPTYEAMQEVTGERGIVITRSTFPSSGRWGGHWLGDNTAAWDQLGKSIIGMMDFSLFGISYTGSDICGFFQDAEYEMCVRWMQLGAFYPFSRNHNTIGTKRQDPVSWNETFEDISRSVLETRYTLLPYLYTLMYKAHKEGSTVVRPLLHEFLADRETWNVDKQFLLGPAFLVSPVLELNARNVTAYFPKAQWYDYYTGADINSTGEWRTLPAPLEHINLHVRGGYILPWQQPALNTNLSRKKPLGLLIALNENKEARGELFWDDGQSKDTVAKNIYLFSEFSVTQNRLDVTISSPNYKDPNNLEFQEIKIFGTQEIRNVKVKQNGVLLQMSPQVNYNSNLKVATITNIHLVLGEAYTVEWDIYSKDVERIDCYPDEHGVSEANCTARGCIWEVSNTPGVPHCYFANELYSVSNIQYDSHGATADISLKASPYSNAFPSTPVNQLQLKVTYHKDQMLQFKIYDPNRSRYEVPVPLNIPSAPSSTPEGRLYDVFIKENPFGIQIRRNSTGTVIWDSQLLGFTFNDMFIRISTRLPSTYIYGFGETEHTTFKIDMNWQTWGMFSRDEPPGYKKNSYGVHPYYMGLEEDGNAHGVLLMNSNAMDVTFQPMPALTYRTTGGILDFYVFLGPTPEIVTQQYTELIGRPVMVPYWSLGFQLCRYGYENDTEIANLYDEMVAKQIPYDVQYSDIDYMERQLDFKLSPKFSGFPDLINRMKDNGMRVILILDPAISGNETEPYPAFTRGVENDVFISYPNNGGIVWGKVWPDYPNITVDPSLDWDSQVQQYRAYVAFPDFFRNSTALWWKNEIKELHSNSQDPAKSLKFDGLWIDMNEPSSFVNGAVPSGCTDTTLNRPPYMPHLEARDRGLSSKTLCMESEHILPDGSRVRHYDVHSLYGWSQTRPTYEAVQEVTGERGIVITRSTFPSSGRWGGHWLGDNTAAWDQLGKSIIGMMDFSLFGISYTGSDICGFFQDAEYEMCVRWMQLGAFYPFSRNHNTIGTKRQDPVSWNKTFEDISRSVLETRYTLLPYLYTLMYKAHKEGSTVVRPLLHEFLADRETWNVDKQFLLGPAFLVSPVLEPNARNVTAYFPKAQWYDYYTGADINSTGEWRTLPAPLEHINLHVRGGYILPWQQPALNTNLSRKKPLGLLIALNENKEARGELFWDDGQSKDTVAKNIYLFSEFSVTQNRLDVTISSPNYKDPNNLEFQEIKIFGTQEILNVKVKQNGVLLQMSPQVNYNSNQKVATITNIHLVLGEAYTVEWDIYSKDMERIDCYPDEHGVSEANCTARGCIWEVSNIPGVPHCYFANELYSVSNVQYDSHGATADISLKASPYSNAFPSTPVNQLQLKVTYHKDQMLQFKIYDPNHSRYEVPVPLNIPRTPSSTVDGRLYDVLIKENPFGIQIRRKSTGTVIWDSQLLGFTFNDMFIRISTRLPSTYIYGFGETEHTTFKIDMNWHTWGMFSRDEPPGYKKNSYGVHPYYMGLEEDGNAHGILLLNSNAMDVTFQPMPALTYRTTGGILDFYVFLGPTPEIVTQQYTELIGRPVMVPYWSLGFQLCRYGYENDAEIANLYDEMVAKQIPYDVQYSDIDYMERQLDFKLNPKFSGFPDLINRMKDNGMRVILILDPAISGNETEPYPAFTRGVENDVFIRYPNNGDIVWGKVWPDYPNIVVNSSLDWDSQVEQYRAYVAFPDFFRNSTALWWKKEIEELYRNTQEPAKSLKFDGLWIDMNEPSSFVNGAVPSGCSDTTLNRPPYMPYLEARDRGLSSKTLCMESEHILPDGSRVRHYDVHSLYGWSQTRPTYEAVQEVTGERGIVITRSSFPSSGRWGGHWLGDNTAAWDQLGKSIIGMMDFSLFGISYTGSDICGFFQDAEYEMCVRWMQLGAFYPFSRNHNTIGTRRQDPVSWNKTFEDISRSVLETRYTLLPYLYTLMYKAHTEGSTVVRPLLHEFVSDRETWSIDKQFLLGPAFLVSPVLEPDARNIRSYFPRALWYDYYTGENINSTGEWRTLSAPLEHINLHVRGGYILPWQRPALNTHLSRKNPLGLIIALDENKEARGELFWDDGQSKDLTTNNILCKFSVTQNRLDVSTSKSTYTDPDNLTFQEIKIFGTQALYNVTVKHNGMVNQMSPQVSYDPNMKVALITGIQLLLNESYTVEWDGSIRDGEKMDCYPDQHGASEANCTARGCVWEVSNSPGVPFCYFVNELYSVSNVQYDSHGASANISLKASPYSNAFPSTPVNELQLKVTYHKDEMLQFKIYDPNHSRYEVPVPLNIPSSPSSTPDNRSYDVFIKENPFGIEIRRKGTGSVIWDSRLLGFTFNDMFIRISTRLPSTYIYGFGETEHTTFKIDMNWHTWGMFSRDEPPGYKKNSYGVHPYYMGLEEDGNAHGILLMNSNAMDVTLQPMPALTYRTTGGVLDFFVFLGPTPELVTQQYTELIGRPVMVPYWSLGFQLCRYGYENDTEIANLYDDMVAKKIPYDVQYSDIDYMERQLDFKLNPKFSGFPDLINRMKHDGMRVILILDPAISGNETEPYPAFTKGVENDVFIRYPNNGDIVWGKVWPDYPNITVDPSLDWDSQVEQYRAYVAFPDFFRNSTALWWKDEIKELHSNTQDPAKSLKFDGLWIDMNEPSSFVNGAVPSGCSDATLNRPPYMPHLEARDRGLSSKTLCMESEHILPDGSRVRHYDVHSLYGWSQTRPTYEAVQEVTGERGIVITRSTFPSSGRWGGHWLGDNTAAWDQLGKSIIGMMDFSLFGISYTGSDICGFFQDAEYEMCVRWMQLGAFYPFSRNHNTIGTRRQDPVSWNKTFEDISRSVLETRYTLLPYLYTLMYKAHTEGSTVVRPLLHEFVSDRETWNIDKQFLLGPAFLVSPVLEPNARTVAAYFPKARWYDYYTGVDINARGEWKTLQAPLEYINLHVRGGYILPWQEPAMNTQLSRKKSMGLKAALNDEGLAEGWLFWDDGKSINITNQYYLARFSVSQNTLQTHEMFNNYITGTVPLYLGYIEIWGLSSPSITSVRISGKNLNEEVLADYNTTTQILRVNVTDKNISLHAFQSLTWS
Protocol: as §1, §2, §3

[5] = read-out: Sucrase Inhibition IC50

Compound	Ki [1] [µM]	Inhibition Type [1]	Selectivity sucrase over amylase (IC50 amylase/IC50 disaccharidases) ([2]; IC50 amylase / IC50 sucrase) [times]	Sucrase Inhibition, Inhibition Ratio (%) [2] [%]	IC50 ([2]; converted from μmol/L by mol wt, read-out: Sucrase IC50 after conversion according to the molecular weight (converted)) [µM]	IC50 [2, 5] [µM]	IC50 [3] [µM]	Inhibitory activity on α-amylase (in words) [3]	α-Amylase Inhibition, Inhibition Ratio (%) [3] [%]	Inhibition Type [4]
OC[C@H]1NC[C@H](O)[C@@H](O)[C@@H]1O [1-DNJ, 1-deoxynojirimycin]	0.0137	Competitive inhibition	1282	100	0.0613	0.078	> 100	no obvious inhibitory activity	0	Competitive inhibition
C[C@H]1O[C@H](O[C@H]2[C@H](O)[C@@H](O)[C@@H](O[C@H]3[C@H](O)[C@@H](O)C(O)O[C@@H]3CO)O[C@@H]2CO)[C@H](O)[C@@H](O)[C@@H]1N[C@H]1C=C(CO)[C@@H](O)[C@H](O)[C@H]1O (stereo partly drawn) [Acarbose, acarbose, reference compound]	–	Competitive inhibition	–	–	–	–	–	strongly inhibited	–	Competitive inhibition
OC[C@H]1NC[C@@H](O)[C@@H]1O [DAB, 1,4-dideoxy-1,4-imino-D-arabinitol]	–	–	–	–	–	–	> 100	no obvious inhibitory activity	–	Competitive inhibition
OC[C@H]1NCC[C@@H](O)[C@@H]1O [FA, fagomine]	3.97	Competitive inhibition	–	84.6	–	13.5	> 100	no obvious inhibitory activity	0	Competitive inhibition

From article PMC6539310, “Investigation on the Enzymatic Profile of Mulberry Alkaloids by Enzymatic Study and Molecular Docking” (Molecules, 2019)
